In this assay the test system is E. coli MS 200-1. In words: Inhibition of TMA production in whole cells (LC-MS/MS assay for choline TMA-lyase activity, d9-TMA from d9-choline). Format: cell-based. Conditions: for inhibition at 3000 µM: 3 mM compound.
Setting [1] is: Escherichia coli, MS2001, Table 3, TMA generation, 1 mM choline-d9, anaerobic, 3.5 h, 37° C., read-out: EC50 against E. coli MS200-1.
[2] abbreviates: Escherichia coli, MS2001, 3.5 h.
The mark [3] stands for this setting: Escherichia coli, MS2001, Table 2, inhibition of TMA-d9 production, 1 mM choline-d9, anaerobic, 3.5 hrs, 37° C., read-out: EC50.
Where [4] appears, read: Table 2, inhibition of TMA-d9 production, 1 mM choline-d9, anaerobic, 3.5 hrs, 37° C., read-out: EC50.
Setting [5] is: Escherichia coli, MS2001, 3.5 h, read-out: EC50 against E. coli MS200-1.
[6] abbreviates: Escherichia coli, MS2001, Table 3, TMA generation of E. coli MS200-1.
The mark [7] stands for this setting: Table 3, TMA generation, 1 mM choline-d9, anaerobic, 3.5 h, 37° C., read-out: EC50 against E. coli MS200-1.

Structures are written as SMILES. Read-outs that look alike come from different tables or passages of the source.

Usually EC50 stands for the concentration needed to bring the measured effect to its halfway point. On to `OC1C=CCN(CC2CC2)C1` (stereo not shown) [drawing 120], for which the concentration giving a half-maximal response (EC50) under setting [1] was found to be 252 µM.
Turning to `O[C@@H]1C=CCN(C2CCCC2)C1`, the EC50 under setting [1] worked out at 62 µM.
Same read-out and setting: the same measure for `CN1CCC[C@@H]1CO` [drawing 172]: 1820 µM.
The compound `CN1CCCC(O)CC1` (stereo not shown) [Compound 24] showed an EC50 under setting [2] of 760 µM.
By inhibition is commonly meant the drop in the measured response relative to a control, in per cent. Low readings indicate a response near the control, high ones a response far below the control. Under “Escherichia coli, MS2001, Table 3, TMA generation of E. coli MS200-1, 100 μM compound”, `COC1CCCCC1N1CC=CC(O)C1` (stereo not shown) showed an inhibition at 100 µM of 40%.
Regarding `C[N+]1(C)CC=CC(O)C1` (stereo not shown) [Compound 25], under setting [3], the EC50 turned out to be 10 µM.
For `CN1CC=CC(O)C1` (stereo not shown) [Compound 11], the EC50 under setting [4] stood at 10 µM.
`CC1CCCCC1N1CC=C[C@@H](O)C1` (stereo partly shown) [Compound 9]: the EC50 under setting [3] was determined as 68 µM.
In the case of `CN1CC=C[C@H](O)C1` [Compound 12], the EC50 under setting [4] was determined as 10 µM.
As to `CN1CCCC(O)CC1` (stereo not shown) [drawing 109], the EC50 under setting [5] worked out at 762 µM.
In the case of `CC1=CC(O)CCC1` (stereo not shown), under setting [1], the EC50 amounted to 14100 µM.
Consider `CC1=CCCCC1O` (stereo not shown), for which, under setting [1], the concentration giving a half-maximal response (EC50) was 3800 µM.
Consider `OC1C=CCN(C2CCCCCC2)C1` (stereo not shown) [Compound 4], for which the 50% effective concentration (EC50) under setting [3] was found to be 24 µM.
Take `CC1CCCC1N1CC=CC(O)C1` (stereo not shown) [drawing 143]: the EC50 under setting [5] is 15 µM.
In the case of `C=CC(O)CN(C)C` (stereo not shown) [drawing 174], the EC50 under setting [1] came out at 70 µM.
Still for that read-out and setting: the figure for `C[N+]1(C)CC=C[C@H](O)C1` is 9 µM; for `OC1C=CCN(Cc2ccsc2)C1` (stereo not shown) it is 260 µM; for `OC1C=CCN(C2CCCCC2F)C1` (stereo not shown) it is 12 µM.
Regarding `CN1CCC(O)C1` (stereo not shown) [drawing 102], the half-maximal effective concentration (EC50) under setting [1] turned out to be 6300 µM.
Turning to `O[C@@H]1C=CCN(C2CCC2)C1`, the 50% effective concentration (EC50) under setting [1] was found to be 193 µM.
Same read-out and setting: the figure for `OC1C=CCN(Cc2ccco2)C1` (stereo not shown) is 197 µM.
As for `CC(C)N1CC=CC(O)C1` (stereo not shown) [drawing 136], the inhibition at 3000 µM under setting [6] came out at 83%.
With `O[C@@H]1C=CCN(C2CCCCC2)C1` [Compound 7], the EC50 under setting [3] was 108 µM.
`OC1C=CCN(C2CCCC2)C1` (stereo not shown) [drawing 140]: the EC50 under setting [1] was 42 µM.
`CCCN1CC=CC(O)C1` (stereo not shown) [drawing 118]: the EC50 under setting [1] came to 196 µM.
Regarding `CC1CCCCC1N1CC=CC(O)C1` (stereo not shown) [Compound 6], under setting [3], the EC50 was found to be 2 µM.
Turning to `O[C@@H]1C=CCCC1`, the EC50 under setting [5] came out at 404 µM.
`OC1C=CCN(C2CCC2)C1` (stereo not shown) [Compound 1]: the half-maximal effective concentration (EC50) under setting [3] worked out at 154 µM.
On to `CC1CCCCC1N1CC=CC(O)C1` (stereo not shown) [drawing 153], for which, under setting [1], the EC50 is 2 µM.
For the compound `C[N+]1(C)CC=C[C@@H](O)C1`, the concentration for a half-maximal effect (EC50) under setting [1] stood at 22 µM.
Turning to `CN1CCCCC1CN` (stereo not shown) [Compound 17], the concentration for a half-maximal effect (EC50) under setting [3] worked out at 120 µM.
With `CN1CCC(=O)C1`, the concentration giving a half-maximal response (EC50) under setting [1] is above 30000 µM.
Still for that read-out and setting: the figure for `CC1CCCCC1N1CC=C[C@@H](O)C1` (stereo partly shown) [drawing 155] is 68 µM; for `OC1C=CCN(Cc2ccoc2)C1` (stereo not shown) it is 256 µM; for `O[C@H]1C=CCN(C2CCC2)C1` it is 116 µM.
With `OC1C=CCN(CCc2ccccc2)C1` (stereo not shown), the EC50 under setting [1] amounted to 294 µM.
On the same count and under the same terms, the same measure for `C[N+]1(C)CC=CC(O)C1` (stereo not shown) [drawing 114]: 8 µM; for `O[C@H]1C=CCN(C2CCCC2)C1`: 41 µM.
As to `CN1CC=CC(O)C1` (stereo not shown) [drawing 110], under setting [7], the EC50 was 10 µM.
Regarding `COc1ccc(CN2CC=C[C@H](O)C2)cc1`, under setting [1], the EC50 came to 383 µM.
Consider `CN1CCCC(=O)C1` [drawing 107], for which, under setting [7], the concentration for a half-maximal effect (EC50) is 27000 µM.
Regarding `CC1CCCC1N1CC=C[C@@H](O)C1` (stereo partly shown) [drawing 145], under setting [5], the EC50 is 164 µM.
Still for that read-out and setting: the figure for `CC1CCCC1N1CC=C[C@H](O)C1` (stereo partly shown) [drawing 144] is 9 µM.
As to `CN1CCCC(=O)C1` [Compound 16], the EC50 under setting [4] turned out to be 9500 µM.
With `OC1C=CCN(CCCl)C1` (stereo not shown), under setting [5], the half-maximal effective concentration (EC50) is 113 µM.
As for `O[C@H]1C=CCOC1`, the concentration for a half-maximal effect (EC50) under setting [1] is 112 µM.
`CC1=CC(O)CN(C)C1` (stereo not shown) [drawing 117]: the EC50 under setting [1] is 923 µM.
As to `CN1CCC[C@@H]1CO` [Compound 21], the concentration for a half-maximal effect (EC50) under setting [3] was 2040 µM.
Consider `OC1C=CCN(Cc2ccccc2)C1` (stereo not shown) [drawing 124], for which the EC50 under setting [1] came out at 367 µM.
Same read-out and setting: the same measure for `C[N+]1(C)CC[C@@H](O)C1`: 2100 µM.
Regarding `CC1CCCCC1N1CC=C[C@H](O)C1` (stereo partly shown) [Compound 10], the EC50 under setting [3] worked out at 1.2 µM.
As for `CN1CCC(O)C1` (stereo not shown) [Compound 14], under setting [3], the 50% effective concentration (EC50) was 6300 µM.
Turning to `OC1C=CCN(C2CCCCC2)C1` (stereo not shown) [Compound 3], under setting [3], the EC50 was 20 µM.
`COc1ccc(CN2CC=CC(O)C2)cc1` (stereo not shown): the half-maximal effective concentration (EC50) under setting [1] turned out to be 304 µM.
`O[C@H]1C=CCN(C2CCCCC2)C1` [Compound 8]: the EC50 under setting [3] was 14 µM.
Consider `OC1C=CCN(C2CCCCCC2)C1` (stereo not shown) [drawing 160], for which the EC50 under setting [1] was determined as 24 µM.
Regarding `OC1C=CCOC1` (stereo not shown) [drawing 167], the EC50 under setting [1] came out at 80 µM.
Still for that read-out and setting: the figure for `CN1CCC(O)CC1` [drawing 108] is 4470 µM.
As for `CC1CCC(N2CC=CC(O)C2)CC1` (stereo not shown), the EC50 under setting [1] was determined as 42 µM.
Take `CN1CC=C[C@@H](O)C1` [Compound 13]: the EC50 under setting [4] stood at 15 µM.
Regarding `C[N+]1(C)CCCC(O)C1` (stereo not shown), under setting [1], the concentration giving a half-maximal response (EC50) is above 30000 µM.
Compound `OC1C=CCN(Cc2ccccn2)C1` (stereo not shown) returned an inhibition at 3000 µM under setting [6] of 96%.
On to `CN1CCC[C@H]1CO` [drawing 171], for which, under setting [1], the concentration giving a half-maximal response (EC50) was 185 µM.
Consider `O[C@H]1C=CCN(C2CCCCC2)C1` [drawing 151], for which the EC50 under setting [1] worked out at 14 µM.
Take `CN1CCCC1CO` (stereo not shown) [Compound 19]: under setting [3], the concentration giving a half-maximal response (EC50) is 250 µM.
As to `OC1C=CCN(CC2CCCCC2)C1` (stereo not shown) [drawing 123], the half-maximal effective concentration (EC50) under setting [1] is 91 µM.
`CC1CCCC1N1CC=CC(O)C1` (stereo not shown) [Compound 5] came in with an EC50 under setting [2] of 15 µM.
`OC1C=CCN(C2CCCCC2)C1` (stereo not shown) [drawing 150]: the EC50 under setting [1] was determined as 22 µM.
Regarding `OC1C=CCN(C2CCCC2Cl)C1` (stereo not shown), under setting [5], the EC50 was 52 µM.
`COC(=O)C1CCCC1N1CC=CC(O)C1` (stereo not shown): the inhibition at 1000 µM (Escherichia coli, MS2001, Table 3, TMA generation of E. coli MS200-1, 1 mM compound) stood at 62%.
`CN1CCC[C@H]1CO` [Compound 20]: under setting [3], the 50% effective concentration (EC50) worked out at 280 µM.
For `CN1CCC(O)CC1` [Compound 15], the 50% effective concentration (EC50) under setting [3] was 4400 µM.
Take `O[C@H]1C=CCCC1`: the concentration giving a half-maximal response (EC50) under setting [5] came out at 482 µM.
With `OC1C=CCOC1` (stereo not shown) [Compound 22], the EC50 under setting [3] was 25 µM.
As to `CN1CC=C[C@@H](O)C1` [drawing 113], the EC50 under setting [7] turned out to be 31 µM.
For the compound `O[C@@H]1C=CCN(Cc2cccs2)C1`, the 50% effective concentration (EC50) under setting [1] stood at 213 µM.
For the compound `OC1C=CCN(C2CCCC2)C1` (stereo not shown) [Compound 2], under setting [3], the 50% effective concentration (EC50) came out at 54 µM.
For the compound `O[C@H]1C=CCN(CC2CC2)C1`, the EC50 under setting [1] came to 319 µM.
On the same count and under the same terms, the figure for `CN1CCCCC1CO` (stereo not shown) is 120 µM.
For the compound `O[C@@H]1C=CCN(C2CCCCC2)C1` [drawing 152], the concentration for a half-maximal effect (EC50) under setting [1] is 108 µM.
The same measure, in the same setting: the same measure for `CC1CCC(N2CC=CC(O)C2)C1` (stereo not shown): 49 µM; for `CC1CCCCC1N1CC=C[C@H](O)C1` (stereo partly shown) [drawing 154]: 12 µM; for `O[C@@H]1C=CCN(CC2CC2)C1`: 151 µM.
Consider `[2H]C1(O)C=CCN(C)C1` (stereo not shown), for which the concentration for a half-maximal effect (EC50) under setting [7] came out at 30 µM.
With `COc1ccc(CN2CC=C[C@@H](O)C2)cc1`, under setting [1], the EC50 is 141 µM.
On to `O[C@@H]1C=CCOC1`, for which the EC50 under setting [1] is 84 µM.
Regarding `OC1C=CCCC1` (stereo not shown) [drawing 162], the half-maximal effective concentration (EC50) under setting [5] is 259 µM.
On to `OC1C=CCN(Cc2cccs2)C1` (stereo not shown), for which the concentration giving a half-maximal response (EC50) under setting [1] turned out to be 225 µM.
The same measure, in the same setting: the figure for `OC1C=CCN(C2CCC2)C1` (stereo not shown) [drawing 137] is 192 µM; for `CC1CCCC(N2CC=CC(O)C2)C1` (stereo not shown) it is 17 µM.
The same measure, in the same setting: the same measure for `O[C@H]1C=CCN(Cc2cccs2)C1`: 191 µM.
`CC(=O)OC1C=CCN(C)C1` (stereo not shown): under setting [1], the 50% effective concentration (EC50) stood at 1790 µM.
`CN1CC=C[C@H](O)C1` [drawing 112]: the EC50 under setting [7] was 10 µM.
With `CN1CCCC1CO` (stereo not shown) [drawing 170], the EC50 under setting [1] was 298 µM.

(Values after patent US20220380309A1, “CHOLINE METABOLISM INHIBITORS” (President and Fellows of Harvard College, priority 2018, published 2022).)
